Results taken from US6331565A, “Dicaffeoylquinic acid for treating hepatitis B and the diseases associated with retrovirus, and the new caffeoylquinic acid derivatives” (Institute of Radiation Medicine Academy of Military Medical …, priority 1996, dated 2001).
≈ marks a conversion by molar mass, not a printed value. Like-named read-outs stand apart in the source and are kept apart here.

Columns and labels:
HBV DNA polymerase = target: T1, HBV DNA polymerase (Hepatitis B virus genotype D subtype ayw, UniProt P03156); test: HBV DNA polymerase assay; type: biochemical
T1 construct: HBV DNA polymerase in viral particles; host or cells: viral particles
T1 sequence (P03156 whole entry): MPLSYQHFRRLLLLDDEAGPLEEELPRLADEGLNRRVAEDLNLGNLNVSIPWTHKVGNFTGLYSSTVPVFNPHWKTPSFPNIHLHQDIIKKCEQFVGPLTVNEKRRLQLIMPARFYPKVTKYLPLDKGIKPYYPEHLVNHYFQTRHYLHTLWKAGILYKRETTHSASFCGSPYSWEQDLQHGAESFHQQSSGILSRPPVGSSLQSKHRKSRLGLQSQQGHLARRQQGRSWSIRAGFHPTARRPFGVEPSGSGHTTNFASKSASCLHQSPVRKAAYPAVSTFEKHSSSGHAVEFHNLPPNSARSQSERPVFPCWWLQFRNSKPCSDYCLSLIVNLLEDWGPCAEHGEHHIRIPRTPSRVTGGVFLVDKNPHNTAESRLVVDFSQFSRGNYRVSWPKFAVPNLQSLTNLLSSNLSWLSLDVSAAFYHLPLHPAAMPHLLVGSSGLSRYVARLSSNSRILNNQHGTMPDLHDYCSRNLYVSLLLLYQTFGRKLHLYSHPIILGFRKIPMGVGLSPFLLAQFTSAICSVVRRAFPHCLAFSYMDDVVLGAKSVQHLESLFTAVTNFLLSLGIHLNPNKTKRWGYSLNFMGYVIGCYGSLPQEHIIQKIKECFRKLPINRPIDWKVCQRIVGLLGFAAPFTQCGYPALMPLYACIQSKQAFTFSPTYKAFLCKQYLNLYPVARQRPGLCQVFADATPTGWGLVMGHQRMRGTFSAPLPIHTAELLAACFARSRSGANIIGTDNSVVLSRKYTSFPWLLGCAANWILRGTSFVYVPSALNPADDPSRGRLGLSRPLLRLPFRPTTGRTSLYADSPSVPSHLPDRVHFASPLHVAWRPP
Experimental: Assay was performed as described by Hantz (Antiviral Res 4(1984) 187-199) with minor modification. The Reaction mixture consisted of HBV DNA polymerase in viral particles in 200 mmol.l^-1 of Tris-HCl pH 7.6, 200 mmol.l^-1 of NH4 Cl. 50 mmol.l^-1 of MgCl2, 10 mmol.l^-1 of 2-mercaptoethanol, 2% Nonidet P-40 and 300 μmol.l^-1 concentrations of deoxynucleotide triphosphates except for [^3 H]dTTP, which was included in the assay at 20 μci.ml^-1. […] The mixtures were incubated at 37° C. for 4 h prior to spotting on Whatman No.3 filter paper which was washed 4 times with cold 5% trichloroacitic acid, then with ethanol. The HBV DNA polymerase activity as measure of the incorperation of the radionucleotide into the viral DNA was counted in a Recbeta (LKB)scintilation counter.

2.2.15 cells = test: Cytotoxicity in 2.2.15 cells (MTT); type: cell-based
Experimental: (§1) The cultures were passenged by trypsinization every 4 days.
The viability of cells was determined by MTT.

HBeAg = test: microbe, parasite or virus in culture; type: cell-based, HBV; conditions: Hepatitis B virus; for inhibition at 7.81 µg/mL / inhibition at 15.63 µg/mL / inhibition at 31.25 µg/mL / inhibition at 62.5 µg/mL / inhibition at 125 µg/mL / inhibition at 250 µg/mL: read-out: HBeAg Inhibit rate (%)
Experimental: as §1
(§2) HBsAg and HBeAg in the culture medium were determined according to the protocol respectively. The culture medium (200 μl) was absorbed on beads containing antibody to HBsAg/HBeAg in the presence of the conjugate. After overnight incubation, the beads were washed 6 times with […] PBS containing 0.05% Tween-80 and incubated with 200 μl of [^125 I] anti-HBs(Hbe) overnight. The beads were washed 6 times as above. The amounts HBsAg/HBeAg as measure of cpm of [^125 I] labeled immunocomplex was counted on γ-counter.

HBsAg = test: microbe, parasite or virus in culture; type: cell-based, HBV; conditions: Hepatitis B virus; for inhibition at 7.81 µg/mL / inhibition at 15.63 µg/mL / inhibition at 31.25 µg/mL / inhibition at 62.5 µg/mL / inhibition at 125 µg/mL / inhibition at 250 µg/mL: read-out: HBsAg Inhibit rate (%)
Experimental: as §1, §2

DHBV = test: anti-DHBV test in ducks (serum DHBV DNA dot blot); type: in vivo, DHBV in Peking (Beijing) ducks
Experimental: One-day-old ducklings were infected with a 200 μl intravenous injection of DHBV-positive serum containing 10^11 viral genome equivalents per milliliter. Treatment began when ducklings were 7 days old. A total 89 seven-day-old viraemic ducks were distributed at random into five groups. […] Post-treatment follow-up was carried over a period of 5 days. Blood samples were obtained repectively from the leg vein of all ducks and stored at -70° C. after serum separation, prior to treatment, weekly during the treatment, and for 5 days after cessation of treatment. They were screened for presence of DHBV DNA by dot blot hybridization.
DHBV DNA in serum was analyzed by molecular hybridization using full length DHBV DNA clones in PB325. The DHBV DNA insert was purified by agarose gel electrophoresis after digestion with EcoRI. The DHBV DNA was radiolabeled with α^32 P-dCTP random oligopriming with Klenow fragment. Dot blot hybridization was carried out by the method of Scotto et al. Briefly, an aliquot (200 μl) serum was spotted onto a nylon membrane (Hybond-N, Amersham International, England) in dot blot manifold and denatured with 0.5 M NaOH--NaCl at room temperature for 30 min. Each spotted sample was neutralized in 1M Tris.HCl-1.5M NaCl (pH8.0). The DNA on the membrane was fixed by heating at 80° C. for 2 h, and prehybridization at 37° C. overnight in 50% formamide, 5×Denhardt's, 6×SSC,[…], 0.5% SDS and 10 mg/ml of calf thymus DNA. Hybridization was initiated by adding DHBV [^32 P] DNA probes at 10^6 cpm/ml at the same prehybridization conditions overnight. The membrane was washed in 3×SSC-0.1% SDS at room temperature, 42° C. and 65° C. for 10 min respectively. After hybridization the membranes were air-dried and exposed for periods of up to 14 days at -70° C. with Kodak film with an enhancer screen. The amount of viral DNA were assayed by both densitometry and image analysis of autoradiographic membranes.

O=C(/C=C/c1ccc(O)c(O)c1)OC1CC(OC(=O)/C=C/c2ccc(O)c(O)c2)(C(=O)O)CC(O)C1O (centres unmarked) [Compound A, 1,5-di-O-caffeoylquinic acid]
IC50 (HBV DNA polymerase): 59.3 µM | inhibitory effect on HBV DNAp (HBV DNA polymerase): significant dose-dependent inhibitory effect | cpm (HBV DNA polymerase; 1 μg/ml): 9856 ± 201 cpm | cpm (HBV DNA polymerase; 10 μg/ml): 7990 ± 79 cpm | cpm (HBV DNA polymerase; 100 μg/ml): 3522 ± 51 cpm | cpm (HBV DNA polymerase; 1000 μg/ml): 1983 ± 159 cpm | inhibition at 1 µg/mL (HBV DNA polymerase; read-out: Inhibitory rate (%)): 11.2 ± 1.9% | inhibition at 10 µg/mL (HBV DNA polymerase; read-out: Inhibitory rate (%)): 30.3 ± 0.8% | inhibition at 100 µg/mL (HBV DNA polymerase; read-out: Inhibitory rate (%)): 68.4 ± 0.5% | inhibition at 1000 µg/mL (HBV DNA polymerase; read-out: Inhibitory rate (%)): 82.3 ± 1.5% | toxicity to 2.2.15 cells (2.2.15 cells; 1.0 μg.ml^-1): did not show toxicity | harmful effects on 2.2.15 cells (2.2.15 cells; 500 μg/ml): no obvious harmful effects | inhibition at 7.81 µg/mL (HBeAg; 96 h): 8.94 ± 4.29% | inhibition at 15.63 µg/mL (HBeAg; 96 h): 19.1 ± 3.89% | inhibition at 31.25 µg/mL (HBeAg; 96 h): 34.5 ± 6.66% | inhibition at 62.5 µg/mL (HBeAg; 96 h): 41 ± 3.68% | inhibition at 125 µg/mL (HBeAg; 96 h): 47.4 ± 1.09% | inhibition at 250 µg/mL (HBeAg; 96 h): 64.2 ± 2.03% | inhibition at 7.81 µg/mL (HBeAg; 288 h): 15.9 ± 2.4% | inhibition at 15.63 µg/mL (HBeAg; 288 h): 27.8 ± 2.23% | inhibition at 31.25 µg/mL (HBeAg; 288 h): 30.5 ± 3.55% | inhibition at 62.5 µg/mL (HBeAg; 288 h): 47.3 ± 0.81% | inhibition at 125 µg/mL (HBeAg; 288 h): 54.5 ± 1.01% | inhibition at 250 µg/mL (HBeAg; 288 h): 66.5 ± 0.9% | inhibition at 7.81 µg/mL (HBeAg; […]): 10.4 ± 2.05% | inhibition at 15.63 µg/mL (HBeAg; […]): 31.7 ± 7.1% | inhibition at 31.25 µg/mL (HBeAg; […]): 41.8 ± 2.47% | inhibition at 62.5 µg/mL (HBeAg; […]): 45.2 ± 2.47% | inhibition at 125 µg/mL (HBeAg; […]): 52.5 ± 1.89% | inhibition at 250 µg/mL (HBeAg; […]): 64.7 ± 2.28% | IC50 (HBeAg; read-out: IC50, production of HBeAg): 21 to 78 µg/mL (≈ 40.7 to 151 µM) | inhibition at 7.81 µg/mL (HBsAg; 96 h): 17.2% | inhibition at 15.63 µg/mL (HBsAg; 96 h): 26% | inhibition at 31.25 µg/mL (HBsAg; 96 h): 37.2 ± 2.86% | inhibition at 62.5 µg/mL (HBsAg; 96 h): 47.5 ± 1.17% | inhibition at 125 µg/mL (HBsAg; 96 h): 57% | inhibition at 250 µg/mL (HBsAg; 96 h): 62.3 ± 2.22% | inhibition at 7.81 µg/mL (HBsAg; 288 h): 24.2 ± 4.63% | inhibition at 15.63 µg/mL (HBsAg; 288 h): 31.4 ± 3.2% | inhibition at 31.25 µg/mL (HBsAg; 288 h): 36.1% | inhibition at 62.5 µg/mL (HBsAg; 288 h): 50.1 ± 1.28% | inhibition at 125 µg/mL (HBsAg; 288 h): 58.3% | inhibition at 250 µg/mL (HBsAg; 288 h): 66.6% | inhibition at 7.81 µg/mL (HBsAg; […]): 18.5% | inhibition at 15.63 µg/mL (HBsAg; […]): 27.6% | inhibition at 31.25 µg/mL (HBsAg; […]): 35.8 ± 1.9% | inhibition at 62.5 µg/mL (HBsAg; […]): 46.7 ± 2.03% | inhibition at 125 µg/mL (HBsAg; […]): 55 ± 2.08% | inhibition at 250 µg/mL (HBsAg; […]): 68.8 ± 4.68% | IC50 (HBsAg; read-out: IC50, production of HBsAg): 21 to 165 µg/mL (≈ 40.7 to 319 µM) | IC50 (HBsAg; read-out: IC50 for inhibition of production of HBsAg): 21 to 165 µg/mL (≈ 40.7 to 319 µM) | inhibition of DHBV DNA (DHBV; 50 mg.kg of body weight^-1.day^-1): strange inhibition of DHBV DNA | inhibition of viraemia (DHBV; 50 mg.kg of body weight^-1.day^-1, day 14): 87%
